Experimental data as given in paper PMC6332320, “Factors Influencing Oral Bioavailability of Thai Mango Seed Kernel Extract and Its Key Phenolic Principles” (Molecules, 2015).

Test system: Caco-2 monolayer
Test: Caco-2 transepithelial transport experiment
Assay type: in vitro ADME, human
Details: 20 µM
Experimental: The transport experiment using Caco-2 monolayer was performed according to the criteria in our laboratory as previously reported with slight modification. Briefly, the cell monolayers were prepared by seeding 400,000 cells onto a polycarbonate insert, which has a surface area and pore size of 4.2 cm^2 and 3 μm, respectively (Nunc™, Thermo Fisher Scientific, Waltham, MA, USA). Cells were maintained in a humidified atmosphere at 37 °C (90% humidity and 5% CO2) and fed every other day. After 19 to 22 days post-seeding, the cell monolayers were used in the experiments. Before the experiment, the monolayers were quickly washed twice with pre-warmed HBSS at pH 7.4 (37 °C). The integrity of each monolayer was then verified by measuring the transepithelial electrical resistance (TEER) using a Millicell® ERS meter (Millipore, Bedford, MA, USA), and layers with TEER values less than 400 Ω/cm^2 relative to that of the blank insert were discarded. Then, the monolayers were incubated with the HBSS buffer at 37 °C for 1 h, and the incubation buffer was then aspirated. The test compounds were dissolved in HBSS at pH 6 to obtain final concentrations for the individual compounds (20 μM), mixture (20 μM) and MSKE (0.25 mg/mL), which were then loaded onto the A or B side (2.6 mL) as the donor side. A 2.6 mL aliquot of HBSS at pH 6 without the test compounds was loaded into the other side as the receiver side. After incubation at 37 °C, 0.6 mL of sample was collected from the receiver side at indicated times (60, 120, 180 and 240 min), and the same volume of receiver medium was replaced after each sampling. At the end of the experiment, the cells were washed twice with ice-cold HBSS at pH 6. The cells in each well were then collected and resuspended in 600 μL of HBSS at pH 6, and sonicated in an ice water bath at an output of 9 W for 30 min to obtain the cell lysates. The lysate was divided into the following aliquots: (1) 20 μL for quantitative protein assessment using a BCA™ protein assay kit and (2) 580 μL for quantitative test compounds. The samples collected from the transport study were stored at −20 °C until the UPLC or LC–MS/MS analysis. The experiments were performed in triplicate.
The apparent permeability coefficient (Papp, cm/s) of each compound was calculated according to the following equation (Equation (1)): (1) Papp= dQ/dt×1/AC0 where dQ/dt is the compound permeation rate (nmol/s), A denotes the membrane surface area, and C0 is the initial concentration on the donor side (µM). The efflux ratio was calculated according to the following equation (Equation (2)): (2) Efflux ratio= Papp BA(mean)/Papp AB(mean) where Papp BA (mean) and Papp AB (mean) are the average apparent permeability coefficients of each compound from side B to side A, and from side A to side B, respectively.

O=C(O)c1cc(O)c(O)c(O)c1 [GA, Gallic acid]
accumulation in the cells (cellular uptake) (after individual bi-directional transport across Caco-2 monolayer): could not be detected | Papp B to A (human, Caco-2, 240 min, pH 6): 1.87 ± 0.47 ×10^−6 cm/s
